# Source: ChEMBL document CHEMBL1777702, “N⁴-[Alkyl-(hydroxyphosphono)phosphonate]-cytidine-new drugs covalently linking antimetabolites (5-FdU, araU or AZT) with bone-targeting bisphosphonates (alendronate or pamidronate)” (Bioorg Med Chem, 2011)
# pIC50: −log10 of the molar value.
# Tests used:
# [1] = Chemical stability of the compound in hydrochloric acid at pH 2; type: physicochemical; conditions: buffer
# HOP-62 = test: Growth inhibition of human HOP62 cells assessed as cell growth at 10 uM after 48 hrs by SRB assay relative to control; type: functional; conditions: HOP-62, 48 h, read-out: Activity
# [2] = Binding affinity to 7 gram of hydroxyapatite at 246 mg after 24 hrs by UV-spectrophotometer analysis; type: physicochemical
# SF-268 = test: Growth inhibition of human SF268 cells assessed as cell growth at 10 uM after 48 hrs by SRB assay relative to control; type: functional; conditions: SF-268, 48 h, read-out: Activity
# RAW264.7 [3] = test: Selectivity ratio of IC50 for mouse RAW264.7 cells to IC50 for mouse LLC cells
# EKVX = test: Growth inhibition of human EKVX cells assessed as cell growth at 10 uM after 48 hrs by SRB assay relative to control; type: functional; conditions: read-out: Activity
# SNB-75 = test: Growth inhibition of human SNB75 cells assessed as cell growth at 10 uM after 48 hrs by SRB assay relative to control; type: functional; conditions: SNB-75, 48 h, read-out: Activity
# SF-539 = test: Growth inhibition of human SF539 cells assessed as cell growth at 10 uM after 48 hrs by SRB assay relative to control; type: functional; conditions: SF-539, 48 h, read-out: Activity
# [4] = Cytotoxicity against mouse LLC cells after 72 hrs by resazurin assay; type: functional, cell-based; conditions: Lewis lung carcinoma
# [5] = Binding affinity to 5 gram of hydroxyapatite at 246 mg after 24 hrs by UV-spectrophotometer analysis; type: physicochemical
# [6] = Binding affinity to 7 gram of hydroxyapatite at 246 mg followed by acidified with hydrochloric acid at pH 2 measured after 24 hrs by UV-spectrophotometer analysis; type: physicochemical; conditions: pH 2, 24 h
# [7] = Cytotoxicity against mouse LLC cells after 24 hrs by resazurin assay; type: functional, cell-based, Lewis lung carcinoma; conditions: for pIC50: Mus musculus, Lewis lung carcinoma, 24 h, read-out: IC50
# MDA-MB-435 = test: Growth inhibition of human MDA-MB-435 cells assessed as cell growth at 10 uM after 48 hrs by SRB assay relative to control; type: functional; conditions: MDA-MB-435, 48 h, read-out: Activity
# HL-60(TB) = test: Growth inhibition of human HL-60(TB) cells assessed as cell growth at 10 uM after 48 hrs by SRB assay relative to control; type: functional; conditions: HL-60, 48 h, read-out: Activity
# NCI-H322M = test: Growth inhibition of human NCI-H322M cells assessed as cell growth at 10 uM after 48 hrs by SRB assay relative to control; type: functional; conditions: read-out: Activity
# Malme-3M = test: Growth inhibition of human MALME-3M cells assessed as cell growth at 10 uM after 48 hrs by SRB assay relative to control; type: functional; conditions: read-out: Activity
# RAW264.7 [8] = test system: RAW264.7
# Description: Cytotoxicity against mouse RAW264.7 cells after 24 hrs by resazurin assay
# OVCAR-3 = test: Growth inhibition of human OVCAR3 cells assessed as cell growth at 10 uM after 48 hrs by SRB assay relative to control; type: functional; conditions: OVCAR-3, 48 h, read-out: Activity
# CAKI-1 = test: Growth inhibition of human Caki1 cells assessed as cell growth at 10 uM after 48 hrs by SRB assay relative to control; type: functional; conditions: CAKI-1, 48 h, read-out: Activity
# RAW264.7 [9] = test: cells; conditions: Mus musculus, RAW264.7, 72 h
# Description: Cytotoxicity against mouse RAW264.7 cells after 72 hrs by resazurin assay
smiles,measurement,setting,value
O=c1nc(NCCCC(O)(P(=O)([O-])O)P(=O)([O-])O)c(F)cn1[C@H]1C[C@H](O)[C@@H](CO)O1.[Na+].[Na+],Stability,[1],Stable
same,growth at 10 µM,HOP-62,93%
same,Activity,[2],87%
same,growth at 10 µM,SF-268,87%
same,Ratio IC50,RAW264.7 [3],167
same,growth at 10 µM,EKVX,82%
same,growth at 10 µM,SNB-75,87%
same,growth at 10 µM,SF-539,95%
same,pIC50,[4],6.82
same,Activity,[5],41%
same,Activity,[6],74%
same,IC50,[7]; lewis lung carcinoma,Not Active
same,growth at 10 µM,MDA-MB-435,87%
same,growth at 10 µM,HL-60(TB),62%
same,growth at 10 µM,NCI-H322M,89%
same,growth at 10 µM,Malme-3M,89%
same,IC50,RAW264.7 [8],Not Active
same,growth at 10 µM,OVCAR-3,88%
same,growth at 10 µM,CAKI-1,79%
same,pIC50,RAW264.7 [9],4.60
O=c1[nH]c(=O)n([C@H]2C[C@H](O)[C@@H](CO)O2)cc1F [FLOXURIDINE],Activity,[2],15%
same,pIC50,[4],5.70
same,pIC50,[7],4.85
same,IC50,RAW264.7 [8],Not Active
same,pIC50,RAW264.7 [9],4.52
NCCCC(O)(P(=O)(O)O)P(=O)(O)O,pIC50,[4],5.58
same,pIC50,[7],6.37
